Reference: article PMC9343461, “Molecular and in vivo studies of a glutamate-class prolyl-endopeptidase for coeliac disease therapy” (Nature Communications, 2022)
Like-named read-outs stand apart in the source and are kept apart here. Square brackets hold non-standard residues; d marks the D form. Peptide text beside a SMILES is read from it. * marks the point of attachment. Sta = CC(C)C[C@H](N)[C@@H](O)CC(=O)O; Isovaleryl = CC(C)CC(=O)*

Tests used:
[1] = molecular target: T1, neprosin (mature catalytic domain, recombinant) (Nepenthes ventricosa x Nepenthes alata, UniProt C0HLV2); experiment: fluorogenic peptide cleavage (FS6-QPQL), inhibition curve; assay type: biochemical
T1 construct: Mature catalytic domain S129-Q380 from autolysis of pro-neprosin at P128-S129 (pro-domain R25-P128 removed); C-terminal Ala-Ile-Ala plus His6 tag kept; expressed in human Expi293F cells; glycosylated at N145 and N152; monomer

[2] = molecular target: T2, mature neprosin (catalytic domain, S129-Q380) with C-terminal His6 tag (Nepenthes x ventrata, UniProt C0HLV2 129-380, N-linked glycans at N145 and N152); experiment: crystal structure; orthorhombic crystals of pro-neprosin (native and Lu-Xo4 derivative), polypeptide cleaved at P128-S129; protein in 20 mM Tris-HCl pH 7.5, 150 mM NaCl; reservoir 0.1 M sodium acetate pH 4.0, 22% PEG 6000, 10% isopropanol, 20 °C; conditions: both partners purified
T2 construct: neprosin from Nepenthes x ventrata, UniProt C0HLV2, catalytic domain S129-Q380 released by cleavage at P128-S129; C-terminal purification tag, numbered A401-I402-A403 + H404-H409; written as a part because it lies in the active-site cleft of a symmetry mate; also called neprosin CD; mature enzyme; source: human Expi293F cells; pro-neprosin purified (Ni-NTA), autolysis at pH 2.5, then SEC; in the …
T2 sequence: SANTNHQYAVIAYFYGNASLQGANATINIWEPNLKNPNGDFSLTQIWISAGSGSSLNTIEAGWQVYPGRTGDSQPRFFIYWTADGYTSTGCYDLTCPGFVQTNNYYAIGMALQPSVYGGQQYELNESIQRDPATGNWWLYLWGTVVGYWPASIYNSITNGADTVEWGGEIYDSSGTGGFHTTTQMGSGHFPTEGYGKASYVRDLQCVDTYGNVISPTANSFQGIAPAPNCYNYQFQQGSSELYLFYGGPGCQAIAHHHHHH

Molecule: O=[N+]([O-])c1ccc(OCC2CO2)cc1 (stereo not drawn) [EPNP, 2-[(4-nitrophenoxy)methyl]oxirane]
- IC50 [1]: 480 µM

Molecule: CC(C)CC(=O)N[C@H](C(=O)N[C@H](C(=O)N[C@@H](CC(C)C)[C@@H](O)CC(=O)N[C@@H](C)C(=O)N[C@@H](CC(C)C)[C@@H](O)CC(=O)O)C(C)C)C(C)C [pepstatin A] (Isovaleryl-VV[Sta]A[Sta]-OH)
- IC50 ([1]; 50 nM neprosin, 10 μM FS6-QPQL, 100 mM glycine pH 3.0, 37 °C, pre-incubated >1 h (pre-incubation stated for the inhibitor screen)): 140 µM

B1: neprosin pro-domain (PD, R25-P128) (domain or fragment, Nepenthes x ventrata, UniProt C0HLV2 25-128, looked up)
chain: RSIQARLANKPKGTIKTIKGDDGEVVDCVDIYKQPAFDHPLLKNHTLQMQPSSYASKVGEYNKLEQPWHKNGECPKGSIPIRRQVITGLPVVKKQFPNLKFAPP
notes: neprosin from Nepenthes x ventrata, UniProt C0HLV2, N-terminal pro-domain R25-P128: globular part A29-G112 and linker L113-P128; Defined in the map from A29 onwards; Y77-N86 and N122 onwards are disordered; also called cleaved PD; source: human Expi293F cells; pro-neprosin purified (Ni-NTA, SEC), found cleaved at P128-S129 in the crystals
- binding result [2]: binds
